Legend:
Carnation = assay: Foliar application (spraying) on potted plants; format: in vivo; settings: 8 g benzyl alcohol (400 L/Ha) in 16 g total (800 L/ha)
Protocol: (§1) Assays were carried out on different plants by foliar application (spraying) to evaluate the herbicide function, its foliar application mode and its speed of action.
(§2) The assays were carried out on potted plants. The application of the product is carried out with a trigger spray bottle which makes it possible to spray 1 g of product per spraying as microdroplets.
(§3) The plants were sprinkled with different quantities of water containing different quantities of pure benzyl alcohol (PanReac AppliChem—ITW Reagents). The untreated (control) plants are sprinkled with the same total quantity, but of water only.
(§4) The collapsing of the plant, the colour intensity of the plant and the diameter of the plant were measured in the following manner: • Collapsing of the plant: the collapsing was evaluated on a scale of 1 to 5. A score of 5 corresponds to the state of the plant habit at T0 and 1 corresponds to a total collapsing of the plant. • Colour intensity: the colour of the plant (leaves and flowers) is evaluated on a scale of 1 to 5. A score of 5 corresponds to the colour intensity of the plant at T0 and a score of 1 corresponds to a total discoloration of the plant (white or brown according to the type of plant). • Diameter of the plant: the diameter of the plant corresponds to the surface area occupied by the plant seen from above and is evaluated by a score of 1 to 5. A score of 5 corresponds to the diameter of the plant at T0 and a score of 1 corresponds to the size of the pot (or smaller than this).

Lobelia = assay: Foliar application (spraying) on potted plants; format: in vivo; settings: 6 g benzyl alcohol (300 L/Ha) in 6 g total (300 L/ha)
Protocol: as §1, §2, §3, §4

Purple horned pansy = assay: Foliar application (spraying) on potted plants; format: in vivo; settings: 1 g benzyl alcohol (50 L/Ha) in 12 g total (600 L/Ha)
Protocol: as §1, §2, §3, §4

Sage = assay: Foliar application (spraying) on potted plants; format: in vivo; settings: 4 g benzyl alcohol (200 L/Ha) in 10 g total (500 L/Ha)
Protocol: as §1, §2, §3, §4

White horned pansy = assay: Foliar application (spraying) on potted plants; format: in vivo; settings: 12 g benzyl alcohol (600 L/Ha) in 12 g total (600 L/Ha)
Protocol: as §1, §2, §3, §4

White petunia = assay: Foliar application (spraying) on potted plants; format: in vivo; settings: 0.1 g benzyl alcohol (5 L/Ha) in 6 g total (300 L/Ha)
Protocol: as §1, §2, §3, §4

Grass = assay: Non-selective activity on herbaceous plants (spraying, potted); format: in vivo, grass of the ryegrass type; settings: 4 g benzyl alcohol (200 L/Ha) in 8 g total (400 L/Ha)
Protocol: The non-selective character of benzyl alcohol was studied on 3 common varieties of herbaceous plants, two dicotyledons (dandelions and clover) and a monocotyledon (grass).
The grass of the ryegrass type makes it possible to confirm that the spectrum of action of benzyl alcohol is broad.
The assays were carried out on potted plants. The application of the product is carried out with a trigger spray bottle which makes it possible to spray 1 g of product per spraying, as microdroplets.
The treated plants are sprinkled with different quantities of water comprising different quantities of pure benzyl alcohol (PanReac AppliChem—ITW Reagents). The untreated (control) plants are sprinkled with the same total quantity of water only.
The plants are observed at the following times: T0, 6 h, 24 h, 48 h, 72 h, 96 h. The collapsing of the plant, the colour intensity and the diameter of the plant were measured as indicated in Example 1.

squares of grass = assay: Outdoor assays with benzyl alcohol used alone; format: in vivo
Protocol: The outdoor assays were carried out on squares of grass having a surface area of 1 m^2. The application of the product is carried out with a compression sprayer which makes it possible to spray 20 to 100 g liquid over a surface area of 1 m^2 (equivalent to 200-1000 L/Ha).
The treated squares of grass are sprayed with a total quantity of water and pure benzyl alcohol (PanReac AppliChem—ITW Reagents) of 20 g (equivalent 200 l/Ha) including 0.5 g benzyl alcohol (equivalent to 5 L/Ha pure benzyl alcohol).
The control squares of grass receive a total quantity of 20 g water alone.
The following measurements and evaluations were carried out: • Percentage of the surface area affected: Following the assays in pots, it was noted that the change in colour correlated with the collapsing and the death of the plants. The time necessary to impact the colour of the grass as well as its surface area was evaluated. • Measurement of the collapsing of the grass: the distance between the ground and the highest part of 10 blades of grass selected at random in a square is measured. The average of these 10 blades is calculated and, after treatment, when this average distance is reduced by 30%, the collapsing time is determined.
Assay no. 2 was carried out under the same conditions as assay no. 1, except that the treated squares of grass are sprayed with a total quantity of water and benzyl alcohol of 60 g (equivalent 600 L/Ha) including 5 g pure benzyl alcohol (equivalent to 50 L/Ha pure benzyl alcohol).
Assay no. 3 was carried out under the same conditions as assay no. 1, except that the treated squares of grass are sprayed with a total quantity of 20 g pure benzyl alcohol (equivalent to 200 L/Ha pure benzyl alcohol).
Assay no. 4 was carried out under the same conditions as assay no. 1, except that the treated squares of grass are sprayed with a total quantity of water and benzyl alcohol of 60 g (equivalent 600 L/Ha) including 40 g pure benzyl alcohol (equivalent to 400 L/Ha pure benzyl alcohol).
Assay no. 5 was carried out under the same conditions as assay no. 1, except that the treated squares of grass are sprayed with a total quantity of water and benzyl alcohol of 100 g (equivalent 1000 L/Ha) including 60 g pure benzyl alcohol (equivalent to 600 L/Ha pure benzyl alcohol).
Assay no. 6 was carried out under the same conditions as assay no. 1, except that the treated squares of grass are sprayed with a total quantity of 80 g pure benzyl alcohol (equivalent to 800 L/Ha pure benzyl alcohol).

Dandelion seeds = assay: Preventative activity (anti-germination), seeds on agar in Petri dish; format: in vivo; settings: 0.35 g sprayed (benzyl alcohol pure, 700 L/Ha; glyphosate diluted at 0.5%)

In the case of OCc1ccccc1 [benzyl alcohol], the “Collapsing of treated plant (score and time): time to pass from score 5 (T0) to score 1” value (“Collapsing of treated plant” for short) (Carnation) is reported as 1 to 24 h, the “Colour intensity of treated plant (score and time): time to pass from score 5 (T0) to score 1” value (“Colour intensity of treated plant” for short) (Carnation) is reported as 1 to 24 h and the “Diameter of treated plant (score and time): time to pass from score 5 (T0) to score 1” value (shortened to “Diameter of treated plant”) (Carnation) is reported as 1 to 48 h. For the same molecule, the “Collapsing of treated plant” value (Lobelia) was 1 to 24 h, the “Colour intensity of treated plant” value (Lobelia) was 1 to 24 h and the “Diameter of treated plant” value (Lobelia) was 1 to 24 h. The “Collapsing of treated plant” value (Purple horned pansy) was 1 to 48 h, the “Colour intensity of treated plant” value (Purple horned pansy) was 1 to 24 h and the “Diameter of treated plant” value (Purple horned pansy) was 1 to 48 h. The “Collapsing of treated plant” value (Sage) was 1 to 48 h, the “Colour intensity of treated plant” value (Sage) was 1 to 24 h and the “Diameter of treated plant” value (Sage) was 1 to 48 h. The “Collapsing of treated plant” value (White horned pansy) was 1 to 6 h, the “Colour intensity of treated plant” value (White horned pansy) was 1 to 6 h and the “Diameter of treated plant” value (White horned pansy) was 1 to 6 h. For the same molecule, the “Collapsing of treated plant” value (White petunia) was 1 to 96 h, the “Colour intensity of treated plant” value (White petunia) was 1 to 96 h and the “Diameter of treated plant” value (White petunia) was 1 to 120 h. For the same molecule, the “Collapsing (score and time): time to pass from score 5 (T0) to score 1” value (Grass) was 1 to 48 h, the “Colour intensity (score and time): time to pass from score 5 (T0) to score 1” value (Grass) was 1 to 24 h and the “Diameter (score and time): time to pass from score 5 (T0) to score 1” value (Grass) was 1 to 48 h. For the same molecule, the “Collapsing of the grass: time after treatment to average collapsing of 30%” value (“Collapsing of the grass: time … of 30%” below) (squares of grass; Assay no. 1: 1 m2 grass outdoors, 0.5 g benzyl alcohol (5 L/Ha) in 20 g total (200 l/Ha)) was 72 h, the “Maximum percentage of the surface area affected” value (shortened to “Maximum percentage”) (squares of grass; Assay no. 1: 1 m2 grass outdoors, 0.5 g benzyl alcohol (5 L/Ha) in 20 g total (200 l/Ha), observed 96 h after treatment) was 45% and the “Collapsing of the grass: time … of 30%” value (squares of grass; Assay no. 2: 1 m2 grass outdoors, 5 g benzyl alcohol (50 L/Ha) in 60 g total (600 L/Ha)) was 48 h. The “Maximum percentage” value (squares of grass; Assay no. 2: 1 m2 grass outdoors, 5 g benzyl alcohol (50 L/Ha) in 60 g total (600 L/Ha), observed 72 h after treatment) was 60%, the “Collapsing of the grass: time … of 30%” value (squares of grass; Assay no. 3: 1 m2 grass outdoors, 20 g pure benzyl alcohol (200 L/Ha)) was 48 h and the “Maximum percentage” value (squares of grass; Assay no. 3: 1 m2 grass outdoors, 20 g pure benzyl alcohol (200 L/Ha), observed 48 h after treatment) was 80%. The “Collapsing of the grass: time … of 30%” value (squares of grass; Assay no. 4: 1 m2 grass outdoors, 40 g benzyl alcohol (400 L/Ha) in 60 g total (600 L/Ha)) was 24 h, the “Maximum percentage” value (squares of grass; Assay no. 4: 1 m2 grass outdoors, 40 g benzyl alcohol (400 L/Ha) in 60 g total (600 L/Ha), observed 24 h after treatment) was 100% and the “Collapsing of the grass: time … of 30%” value (squares of grass; Assay no. 5: 1 m2 grass outdoors, 60 g benzyl alcohol (600 L/Ha) in 100 g total (1000 L/Ha)) was 6 h. The “Maximum percentage” value (squares of grass; Assay no. 5: 1 m2 grass outdoors, 60 g benzyl alcohol (600 L/Ha) in 100 g total (1000 L/Ha), observed 24 h after treatment) was 100%, the “Collapsing of the grass: time … of 30%” value (squares of grass; Assay no. 6: 1 m2 grass outdoors, 80 g pure benzyl alcohol (800 L/Ha)) was 6 h and the “Maximum percentage” value (squares of grass; Assay no. 6: 1 m2 grass outdoors, 80 g pure benzyl alcohol (800 L/Ha), observed 6 h after treatment) was 100%. For the same molecule, the “Percentage of germination at 11 days” value (Dandelion seeds) was 0%.
